From ChEMBL document CHEMBL6078613, “Cathepsin B: The dawn of tumor therapy” (Eur J Med Chem, 2024)
Each block holds one molecule with its values, some of them ahead of it. Where a SMILES comes first, the peptide text is derived from it. The star is where a group is joined. Cbz = O=C(OCc1ccccc1)*; CH2F = FC*

Columns and labels:
Cathepsin B [1] = target: T1, Cathepsin B (Homo sapiens, UniProt P07858); assay: Inhibition of Cathepsin B (unknown origin) at 10 uM relative to control
Cathepsin B [2] = target: T1, Cathepsin B; assay: Inhibition of Cathepsin B (unknown origin)
[3] = Inhibition of Cathepsin B-like cysteine protease (unknown origin); set-up: species or system Homo sapiens

inhibition (Cathepsin B [1]): 91%
SMILES: CCOC(=O)[C@H]1O[C@@H]1C(=O)N[C@@H](CC(C)C)C(=O)NCCC(C)C

IC50 (Cathepsin B [2]): 6 µM
SMILES: COC(=O)CC[C@H](NC(=O)[C@H](Cc1c[nH]c2ccccc12)NC(=O)OCc1ccccc1)C(=O)N[C@@H](Cc1cnc[nH]1)C(=O)N[C@@H](CC(=O)OC)C(=O)CF (Cbz-WE(OMe)HD(OMe)-CH2F)

IC50 [3]: 0.009 µM
SMILES: CC(C)C[C@H](NC(=O)[C@H]1O[C@@H]1C(=O)O)C(=O)NCCCCN=C(N)N [E-64]
